Laboratory results from patent US20250041311A1, “Compound For Treating or Preventing Vimentin-Mediated Diseases” (Aluda Pharmaceuticals, Inc., priority 2021, published 2025).
“Also recorded” adds a separate entry of the source.

What was measured:
PANC-1 cells [1] = test: Exosome release from pancreatic cancer cells (NTA, Western blot); type: cell-based, human
Method: (§1) Human non-small cell lung cancer A549 cells and human pancreatic cancer PANC-1 cells were purchased from the Chinese Academy of Sciences Stem Cell Bank (Shanghai, China). […] Purification, characterization, and analysis of exosomes: To purify exosomes from cell culture supernatants, cells were cultured for 3 days in DMEM medium supplemented with 10% exosome-free FBS prepared by ultracentrifugation of regular FBS at 120,000 g for 16 h. Cell culture supernatants were collected and centrifuged at 500 g for 5 min and then at 2,000 g for 20 min to remove dead cells and cell debris. Then, large vesicles were removed by centrifugation at 12,000 g for 30 minutes. Crude exosomes were pelleted by ultracentrifugation of the supernatant at 110,000 g for 70 min (Backman Ti70), washed with PBS and filtered (0.2 μm). The pellet was then suspended and ultracentrifuged again at 110,000 g for 70 minutes. All ultracentrifugations were performed at 4° C. The size and number of exosomes were analyzed using an LM10 nanoparticle tracking system (NanoSight) equipped with a blue laser (405 nm). Transmission electron microscope (TEM) observation: The morphology of exosomes prepared from the culture supernatant was observed by transmission electron microscope (TEM). Exosome pellets were fixed overnight at 4° C. in 2% glutaraldehyde. Load a drop of 10 μL of the exosome suspension onto the Formvar/Carbon-coated TEM copper grid and let it stand for 20 min. Drain excess fluid. Samples were fixed with 1% uranyl acetate for 5 min, washed 8 times with double distilled water, and dried under incandescent lamp for 10 min, then examined with Tecnai G2 Spirit Bio TWIN transmission electron microscope (FEI, Hillsboro, USA, working voltage 120 kV). […] The lysate was centrifuged to remove insoluble material.

Huh7-NC12 cells = test: Exosome release from liver cancer cells (luciferase exosome reporter, ExoHTP platform); type: cell-based; conditions: 48 h, luciferase activity of exosomes purified from supernatant
Treg cells = test: Syngeneic mouse CT26 tumor model (Treg activation and regeneration); type: in vivo; conditions: 100 mg/kg C52 oral QD
Method: BALB/c mice were subcutaneously inoculated with 1×10E6 CT26 cells. Mice were randomly assigned to each treatment group. The tumor size was measured with a caliper, and the tumor volume was calculated by the following formula: V=length×width 2×1/2. Tumor-bearing mice were orally administered with vehicle or 100 mg/kg […], QD. On the 13th day after tumor inoculation, vehicle- and […]-treated mice were given a single intraperitoneal injection of low-dose (50 mg/kg) cyclophosphamide (Sigma-Aldrich). Mice were euthanized before tumors reached 2.0 cm in longest dimension. Spleen and lymph node samples were collected for flow cytometric analysis.

BALB/c mice = test: Circulating plasma exosomes in mice after oral dosing; type: in vivo, mouse; conditions: 100 mg/kg once a day for 14 days by gavage, vs vehicle
Method: In vivo experiments: 6- to 8-week-old BALB/c mice (18 to 20 g) were purchased from Beijing Life River Experimental Animal Technology Co., Ltd. (Beijing, China) and housed at the Experimental Animal Center of Nanjing University of Traditional Chinese Medicine. Animals were maintained at 22±2° C. on a regular 12h/12h light-dark cycle with free access to food and water. All animal experiments were approved by the Ethics Committee of Nanjing University of Traditional Chinese Medicine. Animal care was provided according to IACUC-approved guidelines.
Twenty-four hours after the last administration, the mice were anesthetized with pentobarbital sodium, from which blood samples were collected, and then the mice were euthanized. […].
Isolation of exosomes from mouse plasma: To obtain plasma for exosome isolation, blood was centrifuged at 500 g for 5 min at 4° C.; 2000 g for 15 min; and treated with a solution of 10000 g for 20 min to remove cells, debris and large vesicles. The crude exosome pellet was resuspended in 60 ml of cold PBS (Invitrogen), and then the exosome suspension was centrifuged at 100,000 g for 70 min at 4° C. For sucrose density gradient centrifugation, mix the washed exosome pellet with 2 mL of […] sucrose solution and add to a sucrose step gradient column (10 2 ml sucrose gradients from […] using 20 mM HEPES as diluent). […]

A549 cells [2] = test: Transwell cell invasive growth assay; type: cell-based, human; conditions: different concentrations of C52, 24 h
Method: (§2) Cell invasive growth assay: Inoculate 1×10E4 cells suspended in 100 μL serum-free RPMI-1640 medium into each upper chamber of a […] Transwell pre-coated with Matrigel and added with DMSO or […] (Cat.3422, Corning, NY, USA). in different concentrations. Add 600 μL of RPMI-1640 containing 10% FBS to the bottom chamber of each well. Cells in transwell plates were cultured for 24 h. Cells on the upper surface were gently wiped with a moistened cotton swab, while cells that passed through the Matrigel to the lower surface of the membrane were fixed with paraformaldehyde and stained with 0.1% crystal violet. These cells on the lower surface were considered invasive and counted in 5 random fields under an inverted microscope. The number of invasive cells was counted by Image J software.

PANC-1 cells [3] = test: Transwell cell invasive growth assay; type: cell-based, human; conditions: different concentrations of C52, 24 h; more pronounced than in A549
Method: as §2

[4] = system: 84 selected human cancer-associated proteins in A549 cells; conditions: 3 μM C52 or 5 μM C52 for 48 h
Method: Cell culture: Human non-small cell lung cancer A549 cells, human pancreatic cancer PANC-1 cells, human glioma U87 cells, human liver cancer HUH7 cells and SMMC-7721 cells, and human gastric cancer AGS cells were purchased from ATCC or Stem Cell Bank of Chinese Academy of Sciences (Shanghai, China). Cells were cultured in RPMI1640 medium containing 10% fetal bovine serum (Sigma, USA), 100 U penicillin and 100 μg/ml streptomycin (Gibco, USA) at 37° C. in a humidified atmosphere containing 5% CO2.
A total of 200 g of lysate protein was run on one Human XL Tumor Array (R&D Systems, Abingdon, UK). Followed the manufacturer's instructions exactly. The protein chip membrane was covered with plastic film and exposed to X-ray film for 8 minutes. Optical density on exposed X-ray film (hu.q, HQ-320XT, China) was quantified using a transmission mode scanner (EPSON, Beijing, China) and analyzed using Image J software.

A549 cells [5] = test: Exosome release from lung cancer cells (NTA, Western blot); type: cell-based, human
Method: as §1

EAE mice = test: MOG-induced experimental autoimmune encephalomyelitis (EAE) mouse model; type: in vivo
PANC-1 cells [6] = test: Wound healing assay; type: cell-based, human; conditions: different concentrations of C52, 24 h, dose-dependent
Method: Wound healing assay: Cells were seeded in 6-well plates containing complete medium and cultured at 37° C. in a humidified air environment containing 5% CO2. […] Then, the cells were washed 3 times with PBS, and then incubated with serum-free RPMI-1640 medium containing different concentrations of […] for 24 h. The wound area and migrated cells within the wound area were photographed using a phase-contrast microscope. The wound area was measured using Image J software.

[7] = Western blot, 0.1, 1 and 10 μM C52, 48 h
[8] = Western blot, 0.1, 1 and 10 μM C52, 48 h, extracellular
[9] = C52 low and medium doses (10 or 30 mg/kg), oral once a day, vs vehicle

O=C(Nc1ccc(F)cc1)Nc1ccc(Nc2nc(/C=C/c3ccccc3)nc(N3CCOCC3)n2)cc1 [Compound C52]
exosomes in culture supernatant (nanoparticle tracking analysis) (PANC-1 cells [1]; 1 μM C52 vs DMSO): significantly reduced | intracellular exosome levels (PANC-1 cells [1]; [7]): did not reduce | content of exosomal markers (CD9, CD63, TSG101) in prepared exosome samples (PANC-1 cells [1]; [8]): significant reduction | inhibition of exosome release (Huh7-NC12 cells): comparable to that of the known exosome inhibitor GW4869; also recorded: effectively inhibit the release of exosomes | tumor growth vs vehicle-treated control mice (Treg cells; BALB/c mice with CT26 tumors): grow faster | regeneration of Treg in lymph nodes (Treg cells; day 29, 16 days after low-dose cyclophosphamide): significantly increased | exosomal markers CD63 and TSG101 in plasma exosomes (BALB/c mice): significantly decreased | migratory ability (Transwell) (A549 cells [2]): hindered the migratory ability | migratory ability (Transwell) (PANC-1 cells [3]): hindered the migratory ability | inhibition of GFP signal increase (Pseudovirus-2019-nCoV): as strong as that by the positive control | IC50 (Pseudovirus-2019-nCoV; read-out: IC50 of inhibition of pseudovirus infection): < 50 nM | effect on protein levels of vimentin and other signaling molecules involved in cell proliferation [4]: little or no effect | exosomes in culture supernatant (nanoparticle tracking analysis) (A549 cells [5]; 1 μM C52 vs DMSO): significantly reduced | intracellular exosome levels (A549 cells [5]; [7]): did not reduce | content of exosomal markers (CD9, CD63, TSG101) in prepared exosome samples (A549 cells [5]; [8]): significant reduction | animal weight loss (EAE mice; [9]): less weight loss; also recorded: reduced | clinical disease scores (EAE mice; [9]): lower; also recorded: improved | disease onset (EAE mice; [9]): relatively delayed | therapeutic effect in EAE (EAE mice; mouse, in vivo, po, 100 mg/kg): no therapeutic effect | closure rate of the gap size (PANC-1 cells [6]): significantly decreased
